Target: T1, GFRα1-RET (Homo sapiens, UniProt P56159)
T1 construct: expressed in transfected cells; host or cells: MG87 murine fibroblasts, stably transfected
T1 sequence (P56159 25-429 limits assumed): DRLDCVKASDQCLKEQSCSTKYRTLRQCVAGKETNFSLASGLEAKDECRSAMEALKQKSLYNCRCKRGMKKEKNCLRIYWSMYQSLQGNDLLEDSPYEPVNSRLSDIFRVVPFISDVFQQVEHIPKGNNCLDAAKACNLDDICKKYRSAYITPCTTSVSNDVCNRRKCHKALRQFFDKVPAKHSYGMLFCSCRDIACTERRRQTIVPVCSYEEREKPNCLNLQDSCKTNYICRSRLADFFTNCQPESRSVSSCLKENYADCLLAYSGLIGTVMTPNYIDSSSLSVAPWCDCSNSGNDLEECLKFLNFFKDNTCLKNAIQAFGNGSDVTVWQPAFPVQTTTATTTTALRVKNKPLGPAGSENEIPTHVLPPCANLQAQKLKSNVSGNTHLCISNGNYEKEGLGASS
Test: Elk1 reporter-gene (luciferase) assay in cells expressing GFRα1-RET
Format: cell-based
Conditions: MG87 murine fibroblasts stably transfected with PathDetect Elk-1, GFRα1 and RET, 6 concentrations, agonist/activator activity
Experimental: For ECso determination, a dose-response test was performed using 6 concentrations of each tested compound. Dose-response curves were fitted using the sigmoidal dose-response (variable slope) analysis in GraphPad Prism program (Graph Pad Inc) and ECso of agonist/activator activity was calculated. Dose-response experiments were all performed in duplicate, two times independently.

Row | Structure (SMILES) | EC50 [µM]
1 | CC1(C)COCCN1S(=O)(=O)c1cc(Cl)c(O)c(N2[C@@H]3CC[C@H]2CN(C(=O)c2ccc(F)cc2Cl)C3)c1 [compound 131, [(1S,5R)-8-[3-chloro-5-(3,3-dimethylmorpholin-4-yl)sulfonyl-2-hydroxy-phenyl]-3,8-diazabicyclo[3.2.1]octan-3-yl]-(2-chloro-4-fluoro-phenyl)methanone] | < 1
2 | Cc1c(Cl)cc(S(=O)(=O)N(C)C(C)(C)C)cc1N1[C@@H]2CC[C@H]1CN(C(=O)c1ccc(F)cc1Cl)C2 [compound 132, N-tert-butyl-3-chloro-5-[(1S,5R)-3-(2-chloro-4-fluoro-benzoyl)-3,8-diazabicyclo[3.2.1]octan-8-yl]-N,4-dimethyl-benzenesulfonamide] | < 1
3 | CN(C(C)(C)C)S(=O)(=O)c1cc(Cl)c(Cl)c(N2[C@@H]3CC[C@H]2CN(C(=O)c2ccc(F)cc2Cl)C3)c1 [compound 133, N-tert-butyl-3,4-dichloro-5-[(1S,5R)-3-(2-chloro-4-fluoro-benzoyl)-3,8-diazabicyclo[3.2.1]octan-8-yl]-N-methyl-benzenesulfonamide] | < 1
4 | CN(C(C)(C)C)S(=O)(=O)c1cc(Cl)c(OCCO)c(N2[C@@H]3CC[C@H]2CN(C(=O)c2ccc(F)cc2Cl)C3)c1 [compound 134] | < 1
5 | COCCOc1c(Cl)cc(S(=O)(=O)N(C)C(C)(C)C)cc1N1[C@@H]2CC[C@H]1CN(C(=O)c1ccc(F)cc1Cl)C2 [compound 135, N-tert-butyl-3-chloro-5-[(1S,5R)-3-(2-chloro-4-fluoro-benzoyl)-3,8-diazabicyclo[3.2.1]octan-8-yl]-4-(2-methoxyethoxy)-N-methyl-benzenesulfonamide] | < 1
6 | CN(C(C)(C)C)S(=O)(=O)c1cc(Cl)c(OCc2ccccc2)c(N2[C@@H]3CC[C@H]2CN(C(=O)c2ccc(F)cc2Cl)C3)c1 [compound 136, 4-benzyloxy-N-tert-butyl-3-chloro-5-[(1S,5R)-3-(2-chloro-4-fluoro-benzoyl)-3,8-diazabicyclo[3.2.1]octan-8-yl]-N-methyl-benzenesulfonamide] | < 1
7 | CN(C(C)(C)C)S(=O)(=O)c1cc(Cl)c(OCc2cccnc2)c(N2[C@@H]3CC[C@H]2CN(C(=O)c2ccc(F)cc2Cl)C3)c1 [compound 137] | < 1
8 | CN(C(C)(C)C)S(=O)(=O)c1cc(Cl)c(OCc2ccncc2)c(N2[C@@H]3CC[C@H]2CN(C(=O)c2ccc(F)cc2Cl)C3)c1 [compound 138, N-tert-butyl-3-chloro-5-[(1S,5R)-3-(2-chloro-4-fluoro-benzoyl)-3,8-diazabicyclo[3.2.1]octan-8-yl]-N-methyl-4-(4-pyridylmethoxy) benzenesulfonamide] | < 1
9 | CC(C)(C)NS(=O)(=O)c1cc(Cl)c(O)c(N2[C@@H]3CC[C@H]2CN(C(=O)c2ccc(F)cc2Cl)C3)c1F [compound 139, N-tert-butyl-5-chloro-3-[(1S,5R)-3-(2-chloro-4-fluoro-benzoyl)-3,8-diazabicyclo[3.2.1]octan-8-yl]-2-fluoro-4-hydroxy-benzenesulfonamide] | < 1

Reference: patent US20260022096A1, “NOVEL SULFONAMIDES AND THEIR USE AS NEUROPROTECTIVE AND/OR NEURORESTORATIVE AGENTS” (GENECODE, priority 2022, published 2026)
